{"source": "paper PMC13267291", "about": "“In vivo functional profiling and structural characterization of the human GLP1R A316T variant” (Science Advances, 2026)", "system": "SNAP/FLAG-hGLP1R^A316T versus ^WT", "assay": "Insulin secretion in transduced primary human islets", "type": "cell-based", "details": "11 mM glucose + 100 nM; n = 4; Fig. 6G,H"}
{"substance": "exendin-4", "values": [{"measurement": "Agonist-induced potentiation of insulin secretion, A316T versus WT", "value": "near-significant loss"}]}
